Reference: patent US10329317B2, “Quinoline derivative for use in the treatment and prevention of viral infections” (ABIVAX, priority 2015, dated 2019)

Experiments:
[1] = target: T1, CBC complex (CBP20 and CBP80) (Homo sapiens, UniProt P52298+Q09161); experiment: UV-induced covalent bridging of purified recombinant CBP20 and CBP80 (SDS-PAGE / Western blot); assay type: binding; details: purified recombinant CBP20 and CBP80, UV light, resolved by SDS-PAGE
T1 construct: made in house
T1 sequence (Q09161 20-790 limits assumed): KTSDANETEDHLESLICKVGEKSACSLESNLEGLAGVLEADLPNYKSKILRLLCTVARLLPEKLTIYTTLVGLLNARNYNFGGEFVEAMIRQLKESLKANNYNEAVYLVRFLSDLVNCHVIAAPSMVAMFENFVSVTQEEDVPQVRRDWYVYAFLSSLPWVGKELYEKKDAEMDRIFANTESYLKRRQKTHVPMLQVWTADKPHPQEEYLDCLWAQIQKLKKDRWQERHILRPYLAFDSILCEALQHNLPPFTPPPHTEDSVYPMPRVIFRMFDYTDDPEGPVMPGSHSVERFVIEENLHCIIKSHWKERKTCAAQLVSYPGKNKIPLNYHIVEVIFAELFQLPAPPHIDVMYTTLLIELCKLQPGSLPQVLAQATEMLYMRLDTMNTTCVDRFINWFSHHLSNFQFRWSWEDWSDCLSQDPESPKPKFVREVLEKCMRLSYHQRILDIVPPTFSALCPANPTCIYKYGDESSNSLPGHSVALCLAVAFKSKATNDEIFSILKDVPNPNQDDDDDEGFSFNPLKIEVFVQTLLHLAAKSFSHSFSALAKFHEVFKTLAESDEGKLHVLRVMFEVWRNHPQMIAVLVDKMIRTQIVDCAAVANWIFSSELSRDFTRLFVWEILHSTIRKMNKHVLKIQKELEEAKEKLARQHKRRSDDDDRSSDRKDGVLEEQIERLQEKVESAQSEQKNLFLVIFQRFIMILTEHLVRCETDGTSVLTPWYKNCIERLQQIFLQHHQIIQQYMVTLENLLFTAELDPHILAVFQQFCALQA
T1 sequence (P52298 1-156): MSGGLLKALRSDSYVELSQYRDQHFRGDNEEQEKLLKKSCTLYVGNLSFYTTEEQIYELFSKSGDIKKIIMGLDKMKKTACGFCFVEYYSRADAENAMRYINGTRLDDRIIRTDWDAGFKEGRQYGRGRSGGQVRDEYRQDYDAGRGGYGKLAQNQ
Method: FIG. 1A. Compounds 1 and 2 interact with the CBC complex. Purified recombinant CBP20 and CBP80 proteins were incubated with increasing concentrations of Compound 2 (left panel) or Compound 1 (right panel, Gluc) and treated during 30 min (Compound 1) or 15 min (Compound 2) with UV light. […] Left panel: from left to right, incubation with 0.1 (lane 1), 1 (lane 2), 10 (lane 3) and 50 μM (lane 4) […]. Right panel: from left to right, incubation with 1 (lane 1), 10 (lane 2), 50 (lane 3), 100 μM (lane 4) and 200 μM (lane 5) of Compound 1.
The recombinant CBC complex, comprising CBP20 and CBP80, is prepared according to the protocol which has been described in Worch, R. et al. (Specificity of recognition of mRNA 5′ cap by human nuclear cap-binding complex. RNA 11, 1355-1363 (2005)).
Compound 1 can make covalent binding with purified CBC complex after […] irradiation with UV light at 365 nm.
The same results were obtained with the glucuronidated Compound 1, the more soluble derivative of Compound 2 that is produced as metabolite using human hepatocytes.

[2] = target: T2, Recombinant human CBC with capped RNA substrate (Homo sapiens, UniProt P52298+Q09161); experiment: Gel-mobility shift assay of CBC binding to capped RNA; details: Compound 1 5-100 μM, Compound 2 5-50 μM, m7GpppG 12 mM
T2 construct: made in house
T2 sequence (Q09161 20-790 limits assumed): T1 sequence (Q09161 20-790 limits assumed)
T2 sequence (P52298 1-156): T1 sequence (P52298 1-156)
Method: FIG. 1B. […] Recombinant human CBC was incubated with a capped RNA substrate and analyzed by native gel electrophoresis in order to resolve the different RNA and RNA-protein complexes: free RNA (lane 1), and CBC-RNA complexes (lanes 2-10) in the presence of 12 mM of m7GppG (lanes 10) or 5 μM, 10 μM or 50 μM of Compound 2 (lanes 2-5, respectively) and 5 μM, 10 μM, 50 μM or 100 μM of Compound 1 (lanes 6-9, respectively).
Recombinant human CBC was incubated with a capped RNA substrate in the presence of increasing concentrations of compound 1 or compound 2 or a m(7)GpppG cap analogue and analyzed by native gel electrophoresis in order to resolve the different RNA and RNA-protein complexes according to Mazza et al. (Large-scale induced fit recognition of an m(7)GpppG cap analogue by the human nuclear cap-binding complex. EMBO J. 21, 5548-5557 (2002).

SMILES	covalent bridging between CBP20 and CBP80 after UV irradiation [1]	competition of the complex between CBC and capped RNA [2]
FC(F)(F)Oc1ccc(Nc2ccc3cccc(Cl)c3n2)cc1 [Compound 2, 8-chloro-N-(4-(trifluoromethoxy)phenyl)quinolin-2-amine]	dose-dependent covalent bridging	no competition
Cn1c[n+]([C@@H]2O[C@H](COP(=O)(O)OP(=O)([O-])OP(=O)(O)OC[C@H]3O[C@@H](n4cnc5c(=O)[nH]c(N)nc54)[C@H](O)[C@@H]3O)[C@@H](O)[C@H]2O)c2nc(N)[nH]c(=O)c21 [m^7GpppG, reference compound]		competed
